# In paper PMC4383003, “Transfer hydrogenation catalysis in cells as a new approach to anticancer drug design” (Nature Communications, 2015):
# Tests used:
# [1] = tested on: A2780 ovarian cancer cells; test: Ruthenium distribution in cancer cells (cell fractionation, ICP-MS); type: cell-based, human
# Experimental: Cell pellets were obtained as described above, and were fractionated using the Fraction PREP kit from BioVision according to the supplier’s instructions. Each sample was digested overnight in concentrated nitric acid (73%) and the amount of Ru taken up by the cells was determined by ICP–MS. These experiments were all carried out in triplicate and the s.d. were calculated.
# Supplementary Table 9: Cellular distribution of complex 2 (as % Ru) in A2780 ovarian cancer cells when co-administered with different concentrations of sodium formate (0 and 2 mM). All the experiments were performed as duplicates of triplicates in independent experiments and the error bars were calculated as the standard deviation from the mean.
# Formate Cytosol Membrane Cytoskeleton Nuclei
# [2] = tested on: NAD^+/NADH ratio in A2780 cells; test: NAD+/NADH determination in cells; type: cell-based, human
# Experimental: Experiments to determine the NAD^+/NADH ratio in A2780 ovarian cancer cells exposed to complex 2 were carried out using the NAD^+/NADH assay kit from Abcam (ab65348) according to the manufacturer’s instructions. Briefly, A2780 cells were seeded in six-well plates at a density of 1.0 × 10^6 cells per well. […] These concentrations of sodium formate were also used on their own as a second set of negative controls. Drug exposure was allowed for 24 h, after which all supernatants were removed by suction and wells were washed with PBS. Cells were treated with trypsin, detached and counted before being pelleted by centrifugation. Cell pellets were extracted using the NAD/NADH extraction buffer and filtered using a 10-kDa-molecular weight cutoff filter. Samples were split into two, the first half was used to determine total NADt (NAD+NADH), and the second half to determine NADH after heating the samples at 333 K for 30 min. The absorbance at 450 nm was normalized against the protein content in each sample determined using the Bradford assay.
# Experiments to determine the time dependence of the NAD/NADH ratio in A2780 ovarian cancer cells exposed to complex 2 were carried out using the NAD^+/NADH assay kit as described above with the following modifications.
# [3] = tested on: CT-DNA; test: Thermal stability (melting temperature) of CT-DNA by UV-Vis; type: binding, calf; conditions: for Tm: CT-DNA, 1:3 complex:base pairs, 2 mM cacodylate pH 7.4, 2 h 310 K; for ΔTm: versus free DNA
# Experimental: Supplementary Table 6: Melting temperature (Tm) of CT-DNA in the presence of 8 or complex 2 (ratio 1:3, complex: base pairs-DNA). The reactions were carried out in cacodylate buffer (2 mM, pH 7.4), and samples incubated for 2 h at 310 K. […]
# a variation in melting temperature between free DNA and DNA in the presence of the corresponding complex. * […] from free DNA using a T-test analysis. ** p < 0.01 from free DNA using a T-test analysis […]
# Thermal stability of CT-DNA
# The melting temperature of CT-DNA in the presence and absence of complex 2 [(p-cym)Ru(TsEn)Cl] was determined by UV-Vis spectroscopy (Supplementary Table 6). Higher melting temperatures indicate increased stabilization of the DNA, which is the effect produced by DNA-intercalators and often by direct metal coordination to […]
# the nucleobases.11 Destabilization of DNA can result in a decrease of the melting […]
# In the presence of complex 8, the melting temperature of CT-DNA increased In agreement with the literature, 12 by 14 K, in 2 mM NaCl, 2 mM cacodylate buffer.
# This increase is due to Ru binding to DNA as well as intercalation. 12 However, upon increasing the chloride concentration by ca. 10x (20 mM NaCl) the melting temperature of CT-DNA in the presence of complex 8, increased only by 7 K. This effect has previously been reported and it is attributed to the partial inhibition of hydrolysis, and, therefore, inhibition of coordination to DNA. 12, 13
# Experiments performed in the presence of complex 2, in 2 mM cacodylate buffer and […]
# NaCl, no decrease of the melting temperature was observed. […]
# [4] = tested on: A2780 cells; test: Mitochondrial membrane assay (JC-10 flow cytometry); type: cell-based, human; conditions: A2780, complex 2 and sodium formate, 24 h
# Experimental: Analysis of the changes of mitochondrial potential in A2780 cells after exposure to complex 2 and sodium formate was carried out using the Abcam, JC-10 Mitochondrial Membrane Potential Assay kit according to the manufacturer’s instructions. Briefly, 1.0 × 10^6 cells were seeded in six-well plates and left to incubate for 24 h in drug-free medium at 310 K in a humidified atmosphere. […] Supernatants were removed by suction and each well was washed with PBS before detaching the cells using trypsin-EDTA. Staining of the samples was done in flow cytometry tubes protected from light, incubating for 30 min at room temperature. Samples were immediately analysed on a Beckton Dickinson FAC Scan with fluorescence detection. Data were processed using FlowJo software. This experiment included carbonyl cyanide m-chlorophenyl hydrazine as positive control.
# [5] = A2780, complex 2 4.5 μM, presence and absence of formate (2 mM)
compound,measurement,setting,value
"Cc1ccc(C(C)C)cc1.Cc1ccc(S(=O)(=O)[N-]CCN)cc1.[Cl-].[Ru+2] [Complex 2, [(p-cym)Ru(TsEn)Cl]]",Ru in cytoskeletal fraction,"[1]; A2780, complex 2 4.5 μM",little Ru
same,Ru in cytosolic fraction,[1]; [5],51%
same,Ru in membrane and organelle fraction,[1]; [5],38%
same,Ru in nuclear fraction,[1]; [5],9%
same,%Ru Cytoskeleton,"[1]; A2780, formate 0 mM",1.9 ± 0.5%
same,%Ru Cytosol,"[1]; A2780, formate 0 mM",50.5 ± 2.4%
same,%Ru Membrane,"[1]; A2780, formate 0 mM",41.6 ± 1.4%
same,%Ru Nuclei,"[1]; A2780, formate 0 mM",6.0 ± 2.8%
same,%Ru Cytoskeleton,"[1]; A2780, formate 2 mM",1.0 ± 0.8%
same,%Ru Cytosol,"[1]; A2780, formate 2 mM",52.0 ± 3.0%
same,%Ru Membrane,"[1]; A2780, formate 2 mM",35.7 ± 7.2%
same,%Ru Nuclei,"[1]; A2780, formate 2 mM",11.3 ± 4.5%
same,apparent TOF (TOFap) for conversion of NAD+ to NADH in cells,"[2]; A2780, 4.5 μM complex 2 and 2 mM sodium formate, 0-24 h",0.19 ± 0.01 h⁻¹
same,NAD+/NADH ratio,"[2]; A2780, complex 2, 24 h, 2 mM formate",1.1
same,NAD+/NADH ratio,"[2]; A2780, complex 2, 24 h, no formate",4.5
same,NAD+/NADH ratio,"[2]; A2780, complex 2 and 2 mM sodium formate, after 12 h",0.74
same,NAD+/NADH ratio,"[2]; A2780, complex 2 and 2 mM sodium formate, after 24 h",0.98
same,NAD+/NADH ratio,"[2]; A2780, complex 2 and 2 mM sodium formate, t=4 h",0.83
same,decrease in the melting temperature of CT-DNA,[3]; 2 mM cacodylate buffer and 2 mM NaCl,-269 °C
same,Tm,[3]; 2 mM NaCl,47.2 ± 1.6 °C
same,Tm,[3]; 20 mM NaCl,54.4 ± 0.7 °C
same,ΔTm,[3]; 2 mM NaCl,-2.4
same,ΔTm,[3]; 20 mM NaCl,-4.9
same,changes in mitochondrial membrane potential,[4],No changes in the mitochondrial membrane potential were observed
